Format in all cases: cell-based
For experiment [1], the system named is A549. Kind of experiment: Cytoxicity / crystal violet staining, A549. The following applies: average of triplicates, % of apoptotic cells vs DMSO controls, N.A. = not active at 10 μM. The protocol:
(§1) PC3 (provided by Dr. Steven Balk's laboratory in Department of Medicine at Beth Israel Deaconess Medical Center), PANC02 and CRL2119 (provided by Dr. Pankaja Seth's laboratory in Department of Medicine at Beth Israel Deaconess Medical Center), A549 (ATCC) cell lines were cultured according to manufacturer's protocols. Briefly, PC3 were cultured in RPMI medium supplemented with 10% FBS (Atlanta). PANC-2, A549 and CRL2119 were cultured in DMEM High medium supplemented with 10% FBS (Atlanta). Human bronchial epithelial cells (BEC) were cultured in Airway Epithelial Cell Basal Medium with the Bronchial Epithelial cell growth kit (ATCC) according to manufacturer's protocol and used at passages 3-5.
(§2) Cells were seeded at 5×10^3 concentration in 96 well plates and treated with test compounds or DMSO (0.001-10 μM) for 72 hours. Culture medium was removed and cells were stained with crystal violet solution (Sigma-Aldrich) for 15 minutes while shaking at room temperature. Crystal violet was then removed and cells were repeatedly washed in water. Attached cells stained with crystal violet were dried and then resuspended in 10% acetic acid. Absorbance was measured at 562 nm. The intensity of staining corresponded directly to the number of live cells.

The subject of experiment [2] is PC3 (prostate cancer), A549 (lung cancer), CLR2119 and PAN02 (pancreatic cancer). Kind of experiment: Crystal violet staining, four cancer cell lines. As to conditions: range over four cell lines, 72 hours, 0.01-10 μM; highest efficiency in PC3; read-out: IC50, survival of cancer cells. The protocol: as §1, §2
For experiment [3], the system named is DNA synthesis. Briefly: BrDU proliferation. The following applies: data not shown.
Experiment [4] relates to PC3 cells. Kind of experiment: Immunostaining of α-tubulin and β-actin in PC3 cells. As to conditions: 24 hours. On the procedure:
Immunofluorescence and immunostaining on cell lines and tumor samples were performed as described in Wegiel et al, Cancer research 2013, 73(23), 7009-21. Anti-mouse STMN1, anti-P (Ser10)-Histone H3, and α-tubulin antibody were obtained from Cell Signaling. β-actin antibody was obtained from Sigma-Aldrich. […] After immunofluorescence staining, the number of P-Histone H3 was quantified per field of view at 40× magnification using Zeiss Axiovert Microscope.

For experiment [5], the system named is PC3 cells. Kind of experiment: Annexin V staining. As to conditions: 24 hours. The protocol:
PC3 cells were seeded at 1×10^5 concentration in 6 well plates 24 hours before experiment. Cells were treated with Compound 6 for 24 hours. Cells were harvested and apoptosis rate was measured using Annexin V-FITC staining according to manufacturer's protocol (BD Biosciences, San Jose, Calif.).

In experiment [6] the target is T1, ASK1 kinase and STMN1 interaction (Homo sapiens, UniProt Q99683).
T1 construct: immunoblotting with antibody against P-ASK1 (Ser83) in A549 cells treated with 1 μM Compound 6 or DMSO; endogenous in cells; host or cells: A549 cells
T1 sequence (Q99683 1-1374): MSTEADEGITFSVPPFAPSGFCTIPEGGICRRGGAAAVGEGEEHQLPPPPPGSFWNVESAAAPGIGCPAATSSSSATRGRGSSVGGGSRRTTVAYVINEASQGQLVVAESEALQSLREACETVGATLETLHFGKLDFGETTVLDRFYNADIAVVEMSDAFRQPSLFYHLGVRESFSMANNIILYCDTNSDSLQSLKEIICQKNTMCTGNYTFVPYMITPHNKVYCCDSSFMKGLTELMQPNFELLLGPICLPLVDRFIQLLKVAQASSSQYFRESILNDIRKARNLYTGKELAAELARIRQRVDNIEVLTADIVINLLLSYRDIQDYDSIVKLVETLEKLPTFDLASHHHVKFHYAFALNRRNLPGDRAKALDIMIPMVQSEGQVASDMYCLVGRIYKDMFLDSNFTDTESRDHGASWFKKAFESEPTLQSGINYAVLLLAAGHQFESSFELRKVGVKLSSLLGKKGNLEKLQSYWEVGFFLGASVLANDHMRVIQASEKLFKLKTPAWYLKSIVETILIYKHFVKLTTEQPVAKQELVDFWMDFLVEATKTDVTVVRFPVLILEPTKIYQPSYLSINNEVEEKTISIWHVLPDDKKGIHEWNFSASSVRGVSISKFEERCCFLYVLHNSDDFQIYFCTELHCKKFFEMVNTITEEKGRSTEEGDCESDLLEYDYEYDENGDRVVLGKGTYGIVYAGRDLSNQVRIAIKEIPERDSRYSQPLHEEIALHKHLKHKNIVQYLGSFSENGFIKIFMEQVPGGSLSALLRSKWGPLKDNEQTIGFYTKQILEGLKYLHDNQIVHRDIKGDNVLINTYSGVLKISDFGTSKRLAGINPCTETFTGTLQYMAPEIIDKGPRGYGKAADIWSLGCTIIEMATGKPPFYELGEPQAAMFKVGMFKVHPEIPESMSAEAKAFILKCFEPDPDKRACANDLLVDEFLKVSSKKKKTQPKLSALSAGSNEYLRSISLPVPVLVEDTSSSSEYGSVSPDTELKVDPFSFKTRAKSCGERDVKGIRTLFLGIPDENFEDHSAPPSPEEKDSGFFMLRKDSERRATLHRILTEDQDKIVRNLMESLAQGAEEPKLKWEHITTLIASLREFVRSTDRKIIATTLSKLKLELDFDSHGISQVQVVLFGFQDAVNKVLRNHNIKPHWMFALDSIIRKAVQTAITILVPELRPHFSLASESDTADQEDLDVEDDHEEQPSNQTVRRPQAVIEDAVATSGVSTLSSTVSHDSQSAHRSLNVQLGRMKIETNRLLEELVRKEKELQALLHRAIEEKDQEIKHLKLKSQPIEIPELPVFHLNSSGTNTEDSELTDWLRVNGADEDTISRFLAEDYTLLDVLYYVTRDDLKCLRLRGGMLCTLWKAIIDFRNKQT
Briefly: Immunoprecipitation of STMN1 / immunoblotting of P-ASK1. As to conditions: A549 cells, 1 μM, 30 minutes. The protocol:
Snap-frozen tissue samples were homogenized in ice-cold tissue lysis buffer (250 mM NaCl, 5 mM EDTA, 1% Triton X-100, 10 mM Tris-HCl; pH 7.5) containing the protease inhibitor cocktail Complete Mini (Roche). For co-immunoprecipitation, 200 μg protein lysates in RIPA buffer and the protease inhibitor cocktail were mixed with appropriate antibodies and 30 μl Protein A/G Plus-agarose beads (Santa Cruz Biotechnology) and then rotated for 1 hour at room temperature. The proteins were washed with RIPA buffer and eluted (95° C., 5 min in SDS loading buffer). Immunoblotting was performed as previously described in Chin et al., Proc. Natl. Acad. Sci. USA 2007, 104(12), 5109-14. Antibodies: P (Ser967)-ASK1 (Cell Signaling), Ask1 (Cell Signaling), P-STMN1 (Ser16) (Cell Signaling), STMN1 (Cell Signaling), 13-Actin (Sigma) were used at 1:1000 dilution.
Background: Immunoblotting shows a protein as a band on a membrane.

The test system of experiment [7] is PC3. Briefly: Cytoxicity / crystal violet staining, PC3. As to conditions: average of triplicates, % of apoptotic cells vs DMSO controls, N.A. = not active at 10 μM. The protocol: as §1, §2

Experimental findings from patent US10512631B2, “Chalcone compounds” (Beth Israel Deaconess Medical Center, Inc., priority 2015, dated 2019) are described below.

As a reminder, the IC50 is the midpoint of a concentration-inhibition curve.

`Cn1ccc2cc(/C=C3\CCc4ccc(F)cc4C3=O)ccc21` [Compound 6, (2E)-7-fluoro-2-[(1-methyl-1H-indol-5-yl)methylidene]-1,2,3,4-tetrahydronaphthalen-1-one]: the “Cytoxicity (% cell killing at 10 μM) A549” value in experiment [1] was 47%. Besides, in experiment [2], the IC50 is 140 to 300 nM. Also, in experiment [3], the “DNA synthesis (BrDU proliferation)” value is “did not inhibit DNA synthesis”. In addition, the β-actin microfilament cytoskeleton entry in experiment [4] (1 μM) is recorded as “disintegrated β-actin microfilament cytoskeleton”. For the same molecule, the “microtubule stability (α-tubulin immunostaining)” value in experiment [4] (Compound 6 1 μM or docetaxel 20 nM) is “suppressed mitotic spindle formation, as well as accumulation of α-tubulin and microtubules”. In addition, the “Annexin V-positive cells” value in experiment [5] is “increased number of Annexin V-positive cells”. Besides, the “ASK1 kinase and STMN1 interaction” value in experiment [6] is recorded as “significantly blocked”. Further, the “Cytoxicity (% cell killing at 10 μM) PC3” value in experiment [7] was found to be 49%.
